Experimental data published in patent publication US9458507B1, “Antipsychotic treatment based on SNP genotype” (Vanda Pharmaceuticals, Inc., priority 2007, dated 2016).

Experiments:
[1] = test system: patients with diagnoses of schizophrenia; experiment: randomized, double-blind, placebo- and ziprasidone-controlled, 28-day study of iloperidone with whole genome association study; change in PANSS-T by SNP genotype; type: in vivo, human; conditions: for mean of change in PANSS-T: iloperidone group, MMRM analysis; for Odds Ratio of Improvement ≧ 20% in PANSS-T: iloperidone-treated patients, LOCF data
Description: The clinical trial evaluated the efficacy of iloperidone in treating patients with diagnosed schizophrenia.
Patients 18 to 65 years of age with diagnoses of schizophrenia according to the Diagnostic and Statistical Manual of Mental Disorders, 4th Edition were eligible to participate in a randomized, double-blind, placebo- and ziprasidone-controlled, 28-day study of the efficacy and safety of iloperidone. Patients were randomly assigned to iloperidone 12 mg twice a day, ziprasidone 80 mg twice a day (active control), or placebo. The primary efficacy variable was change from baseline to the last scheduled observation in Positive and Negative Syndrome Scale total score (PANSS-T) using the data from the short-term, double-blind phase. A secondary objective was to identify genetic markers predictive of response to iloperidone.
Blood samples were collected, and DNA was extracted from 432 of 457 patients who consented to the optional WGAS, including 218 patients administered iloperidone and 102 administered placebo.
To independently discover and confirm biomarkers of iloperidone efficacy, patients administered iloperidone were randomly separated and genotyped for the WGAS into two groups (Group 1 (discovery phase) and Group 2 (confirmatory phase)) of equal size. PROC SURVEYSELECT (SAS Institute, Cary, N.C.) was used to stratify the groups to have approximately equal numbers of patients of each race and each sex.
In Group 1, each SNP was tested for potential association between genotype and change in PANSS-T for patients in the low 30% and the high 30% extremes of the distribution of Day 28 last-observation-carried-forward (LOCF) data. Analysis was performed using a truncated nonparametric measure analysis of variance (ANOVA), based on the Kruskal-Wallis test, with genotypes as the grouping variables. Based on a significant omnibus test and ad hoc contrasts, the results that produced the most parsimonious genetic model (e.g., homozygous for one allele vs. all other genotypes (e.g., AA vs. AB and BB), heterozygous vs. homozygous genotypes (AB vs. AA and BB)) dictated the genetic model that was tested in the confirmatory phase. For ease of global description, given that each SNP might have a different parsimonious model, the genotypes of all SNPs associated with positive iloperidone response were referred to as genotype class C1, and the remaining genotypes for that SNP were referred to as genotype class C2. If no parsimonious genetic model was obtained for a SNP, it was not tested further. Only the subset of 100 SNPs with the lowest P values for the contrasts that defined C1 and C2 was tested in the confirmatory phase.
Two separate methods were applied. LOCF data for PANSS-T at Day 28 were used in a one-way ANOVA of each SNP, testing each genotype class against the class of the other two genotypes combined. Results from the ANOVA dictated the parsimonious genetic model to be used for additional testing. Mixed Model Repeated Measures (MMRM) analysis was subsequently conducted using the parsimonious genetic model of each SNP in the MMRM model, as used for the analysis of the clinical trial results. In the MMRM analysis, only the best genetic model of each SNP, as determined in the ANOVA LOCF data analysis, was used.
Three analyses were performed. Analysis 1 was a two-phase approach in which DNA samples were separated into two groups. The first group consisted of 50% of the samples for a discovery phase in which only the top 30% and the bottom 30% of the change in PANSS-T (LOCF data) were used, and the second was a hold-out group consisting of the other 50% for a confirmatory phase. Only the 100 SNPs with the lowest P values in the discovery phase were subsequently tested.
Analysis 2 was an ANOVA of LOCF data for all iloperidone-treated patients in a single-phase approach.
Analysis 3 was an MMRM analysis of all patients using the most parsimonious genetic model of each SNP. […]

5-HT, receptor = 5-HT, receptor (Homo sapiens, UniProt P34969); conditions: cited from earlier work
5-HT, receptor, sequence (P34969 whole entry): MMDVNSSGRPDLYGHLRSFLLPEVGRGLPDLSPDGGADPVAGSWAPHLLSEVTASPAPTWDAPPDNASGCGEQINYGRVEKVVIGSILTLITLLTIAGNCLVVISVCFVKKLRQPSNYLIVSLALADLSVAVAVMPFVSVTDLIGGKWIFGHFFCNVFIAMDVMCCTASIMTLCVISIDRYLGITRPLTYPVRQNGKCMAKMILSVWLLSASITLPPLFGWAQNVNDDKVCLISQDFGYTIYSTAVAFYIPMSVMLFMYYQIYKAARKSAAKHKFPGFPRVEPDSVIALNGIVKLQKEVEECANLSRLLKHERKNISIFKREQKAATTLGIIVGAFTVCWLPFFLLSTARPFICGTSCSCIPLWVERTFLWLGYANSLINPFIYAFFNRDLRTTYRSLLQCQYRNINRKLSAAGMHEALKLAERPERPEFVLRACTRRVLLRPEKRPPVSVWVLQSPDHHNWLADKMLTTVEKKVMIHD

In the case of COc1cc(C(C)=O)ccc1OCCCN1CCC(c2noc3cc(F)ccc23)CC1 [iloperidone, 1-[4-[3-[4-(6-flouro-1,2-benzisoxazol-3-yl)-1-piperidinyl]propoxy]-3-methoxyphenyl] ethanone], the “mean of change in PANSS-T” value ([1]; rs875326 (TNR) genotype non-AG (homozygotes, highest response class)) is reported as −16.39 (±4.35), the “Odds Ratio of Improvement ≧ 20% in PANSS-T” value ([1]; rs875326 (TNR) non-AG vs AG) is reported as 3.57 and the “Odds Ratio of Improvement ≧ 20% in PANSS-T” value ([1]; rs2513265 (GRIA4) non-TT vs TT) is reported as 2.43. For the same compound, the “Odds Ratio of Improvement ≧ 20% in PANSS-T” value ([1]; rs4528226 (NUDT9P1) GT vs non-GT) was 3.00, the “mean of change in PANSS-T” value ([1]; rs4528226 (NUDT9P1) genotype GT (highest response class)) was −18.73 (±3.99) and the “Odds Ratio of Improvement ≧ 20% in PANSS-T” value ([1]; rs7837682 (GRFA2) AA vs non-AA) was 2.95. For the same compound, the “mean of change in PANSS-T” value ([1]; rs7837682 (GRFA2) genotype AA (highest response class)) was −15.95 (±4.23), the “Odds Ratio of Improvement ≧ 20% in PANSS-T” value ([1]; rs9643483 (XKR4) non-GG vs GG) was 3.42 and the “Odds Ratio of Improvement ≧ 20% in PANSS-T” value ([1]; rs11851892 (NPAS3) non-GG vs GG) was 2.74. The “improvement in PANSS-T greater than the mean response of all iloperidone-treated patients” value ([1]; rs11851892 non-GG genotype vs all iloperidone-treated patients) was 68% and the “affinity for the 5-HT, receptor” value (5-HT, receptor) was “high affinity”.
